Reference: patent US20060147924A1, “Population of nucleic acids including a subpopulation of lna oligomers” (priority 2002, published 2006)

What was measured:
aagaggccagtg = assay: Tm of chimeric LNA-DNA 12-mers, Gluc53as-A, singly mismatched duplex; type: binding; conditions: for Tm (± 0.5° C.) of the duplexes with DNA oligonucleotide aagaggccagtg: Table 5, Gluc53as-A, singly mismatched, duplexes 2 μM, buffer as Table 4; for ΔTm between singly mismatched and perfect duplexes (Gluc53as-A): Table 5, value in brackets
Procedure: (§1) The thermal denaturation experiments were performed on a Perkin-Elmer UV/VIS spectrometer fitted with a PTP-6 Peltier temperature-programming element using a medium salt buffer solution (10 mM sodium phosphate, 100 mM sodium chloride, 0.1 mM EDTA, pH 7.0). […] The absorbance was monitored at 260 nm while raising the temperature at a rate of 1° C. per min. The melting temperatures (Tm values) of the duplexes were determined as the maximum of the first derivatives of the melting curves obtained.

aagagtccagtg = assay: Tm of chimeric LNA-DNA 12-mers, Gluc53as-A, perfect duplex; type: binding; conditions: Table 5, Gluc53as-A, duplexes 2 μM, buffer as Table 4
Procedure: as §1

[1] = test system: self complementary duplex; assay: Tm of self complementary duplexes of dual labeled SBC-LNA probes; type: binding; conditions: Table 7, duplexes 2 μM, 0.1 M NaCl, 10 mM Na-phosphate pH 7.0, 1 mM EDTA
Procedure: (§2) (entry 1) to 53.5° C. (entry 2) thus verifying the reduced strength of the intramolecular hydrogen bonds of the self complementary oligonucleotide. At the same time the oligonucleotides containing the SBC LNA monomers are able to hybridize to complementary DNA due to the increased binding efficiency of LNA-D and LNA-^2SU. Similarly as exemplified in Table 8 (see below) the Tm of a duplex between 2 complementary oligonucleotides containing e.g. 3 SBC LNA pairs (entry 3) is reduced to 59° C. from the corresponding non-SBC LNA duplex (82° C.-entry 1) while the single-stranded SBC LNA oligonucleotides still are capable to hybridize to complementary non-modified LNA oligonucleotides as well as DNA oligonucleotides with increased Tm.

3′-ACGGCCAC-5′ = assay: Tm of LNA:DNA and DNA:DNA 8-mer duplexes, single mismatch (Table 2); type: binding; conditions: for ΔTm: perfect match vs single mismatch
Excerpt: (§3) It is often difficult to design probes and primers with the same range of melting temperature due to the variance in A/T and G/C content of the probing sites. Highly A/T rich regions typically give lower Tm values. Furthermore, if single mismatches are to be resolved, G/T mismatches are known to contribute little to ΔTm. As discussed above, the use of LNA is a desirable way to solve problems related to multiplex use of primers and probes. LNA offers the possibility to adjust Tm and increase the ΔTm at the same time. LNA increases Tm with 4-8° C./substitution and Increases ΔTm in many cases with several 100% (Table 2 and FIG. 22).

3′-ACGACCAC-5′ = assay: Tm of LNA:DNA and DNA:DNA 8-mer duplexes, perfect match (Table 2); type: binding
Excerpt: as §3

3′-TGTATC = assay: Tm of duplexes of 6-mers with LNA 3′-TGTATC; type: binding; conditions: Table 8; duplexes 2.5 μM; 0.1 M NaCl, 10 mM Na-phosphate pH 7.0, 10 mM EDTA
Procedure: as §2

3′-TG^2SUATC = assay: Tm of duplexes of 6-mers with SBC-LNA 3′-TG^2SUATC; type: binding; conditions: Table 8; duplexes 2.5 μM; 0.1 M NaCl, 10 mM Na-phosphate pH 7.0, 10 mM EDTA
Procedure: as §2

3′-^2SUG^2SUA^2SUC = assay: Tm of duplexes of 6-mers with SBC-LNA 3′-^2SUG^2SUA^2SUC; type: binding; conditions: Table 8; duplexes 2.5 μM; 0.1 M NaCl, 10 mM Na-phosphate pH 7.0, 10 mM EDTA
Procedure: as §2

3′-ctgtatcc = assay: Thermal denaturation (Tm) of duplexes with complementary DNA 3′-ctgtatcc; type: binding; conditions: Table 8; duplexes 2.5 μM; 0.1 M NaCl, 10 mM Na-phosphate pH 7.0, 10 mM EDTA
Procedure: The complexing properties of oligonucleotides containing new LNA monomers 1-3 were assessed. Comparative binding data from an 8-mer LNA sequence is shown in Table 4 as the melting temperatures against complementary single-stranded DNA. An exemplary sequence for this comparison is GACATAGG, which is the central part of a capture probe used for SNP detection in GluclVS7-7asA (A:a mismatch position). The thermal stabilities of reference DNA duplexes (entries 1-7, Table 4) can be directly compared with their LNA counterparts (entries 8-14). […] The average melting temperatures of DNA and LNA 8-mers against complementary DNAs typically differ by about 40° C. […] (i.e., entries 1 and 4). D-nucleosides may facilitate a B to A helix transition, because the A-type structure of an LNA:DNA duplex is more suitable for effective D:t pairing. This stabilizing effect is expected to be even more pronounced for LNA:RNA duplexes, which can be very useful for construction of antisense or other gene-silencing reagents. The mismatch discrimination ability of the D-nucleoside was also studied (entry 11).
The absorbance was monitored at 260 nm while raising the temperature at a rate of 1° C. per min. The melting temperatures (Tm values) of the duplexes were determined as the maximum of the first derivatives of the melting curves obtained.

caacatcccaca = assay: Tm of chimeric LNA-DNA 12-mers, HNFas128A-2, perfect duplex; type: binding; conditions: Table 5, HNFas128A-2, perfect duplex; duplexes 2 μM; buffer as Table 4
Procedure: as §1

caacaacccaca = assay: Tm of chimeric LNA-DNA 12-mers, HNFas128A-2, singly mismatched duplex; type: binding; conditions: for Tm (± 0.5° C.) of the duplexes with DNA oligonucleotide caacaacccaca: Table 5, HNFas128A-2, singly mismatched, duplexes 2 μM, buffer as Table 4; for ΔTm between singly mismatched and perfect duplexes (HNFas128A-2): Table 5, value in brackets
Procedure: as §1

In the case of “cAmCtgGAmCtctt (CACTGGACTCTT; mixed-case modified oligonucleotide, notation key not given here) [chimeric LNA-DNA 12-mer, Gluc53as-A, with LNA-A]”, the “Tm (± 0.5° C.) of the duplexes with DNA oligonucleotide aagaggccagtg” value (aagaggccagtg) is reported as 50.6 °C, the “ΔTm between singly mismatched and perfect duplexes (Gluc53as-A)” value (aagaggccagtg) is reported as −10.9 °C and the “Tm (± 0.5° C.) of the complementary duplexes with DNA oligonucleotide aagagtccagtg” value (aagagtccagtg) is reported as 61.5 °C.
With `Nc1ncc2ncn([C@@H]3O[C@@]4(CO)CO[C@@H]3[C@@H]4O)c2n1` [Compound 23, (1S,3R,4R,7S)-3-(2-aminopurin-9-yl)-7-hydroxy-1-hydroxymethyl-2,5-dioxabicyclo[2.2.1]heptane] the melting point was 227.5 to 229 °C (dec.).
For 5′-Fitc-taDDT^2SU^2SUta-EQL, the “Tm ^a of self complementary duplexes” value [1] was 53.5 °C.
With 5′-TGCTGGTG-3′ [LNA 8-mer] the “Tm of LNA:DNA Duplexes, Single mismatch 3′-ACGGCCAC-5′” value (3′-ACGGCCAC-5′) was 45 °C, the ΔTm (3′-ACGGCCAC-5′) was 26 °C and the “Tm of LNA:DNA Duplexes, Perfect match 3′-ACGACCAC-5′” value (3′-ACGACCAC-5′) was 71 °C.
With 5′-DCDTDG the “Tm of the duplexes with 3′-TGTATC” value (3′-TGTATC) was greater than 97 °C, the “Tm of the duplexes with 3′-TG^2SUATC” value (3′-TG^2SUATC) was 95 °C and the “Tm of the duplexes with 3′-^2SUG^2SUA^2SUC” value (from here on “Tm … with 3′-^2SUG^2SUA^2SUC”) (3′-^2SUG^2SUA^2SUC) was 59 °C. For the same molecule, the “Tm of the duplexes with 3′-ctgtatcc” value (3′-ctgtatcc) was 55 °C.
With 5′-ACATAG the “Tm of the duplexes with 3′-TGTATC” value (3′-TGTATC) was 82 °C, the “Tm of the duplexes with 3′-TG^2SUATC” value (3′-TG^2SUATC) was 85 °C and the “Tm … with 3′-^2SUG^2SUA^2SUC” value (3′-^2SUG^2SUA^2SUC) was 83 °C. The “Tm of the duplexes with 3′-ctgtatcc” value (3′-ctgtatcc) was 27 °C.
In the case of “tGtggGATGttg (TGTGGGATGTTG; chemistry not given here) [chimeric LNA-DNA 12-mer, HNFas128A-2, with LNA-A]”, the “Tm (± 0.5° C.) of the complementary duplexes with DNA oligonucleotide caacatcccaca” value (caacatcccaca) is reported as 61.0 °C, the “Tm (± 0.5° C.) of the duplexes with DNA oligonucleotide caacaacccaca” value (caacaacccaca) is reported as 45.9 °C and the “ΔTm between singly mismatched and perfect duplexes (HNFas128A-2)” value (caacaacccaca) is reported as −15.1 °C.
In the case of 5′-ACDTAG, the “Tm of the duplexes with 3′-TGTATC” value (3′-TGTATC) is reported as 93 °C, the “Tm of the duplexes with 3′-TG^2SUATC” value (3′-TG^2SUATC) is reported as 75 °C and the “Tm … with 3′-^2SUG^2SUA^2SUC” value (3′-^2SUG^2SUA^2SUC) is reported as 73 °C. The “Tm of the duplexes with 3′-ctgtatcc” value (3′-ctgtatcc) was 37 °C.
In the case of “5′-TGCTGGTG-3′ [DNA 8-mer, reference compound]”, the “Tm of LNA:DNA Duplexes, Single mismatch 3′-ACGGCCAC-5′” value (3′-ACGGCCAC-5′) is reported as 25 °C, the ΔTm (3′-ACGGCCAC-5′) is reported as 10 °C and the “Tm of LNA:DNA Duplexes, Perfect match 3′-ACGACCAC-5′” value (3′-ACGACCAC-5′) is reported as 35 °C.
For cAmCtgGDmCtctt, the “Tm (± 0.5° C.) of the duplexes with DNA oligonucleotide aagaggccagtg” value (aagaggccagtg) was 45.4 °C, the “ΔTm between singly mismatched and perfect duplexes (Gluc53as-A)” value (aagaggccagtg) was −19.9 °C and the “Tm (± 0.5° C.) of the complementary duplexes with DNA oligonucleotide aagagtccagtg” value (aagagtccagtg) was 65.3 °C.
With tGtggGDTGttg the “Tm (± 0.5° C.) of the complementary duplexes with DNA oligonucleotide caacatcccaca” value (caacatcccaca) was 65.5 °C, the “Tm (± 0.5° C.) of the duplexes with DNA oligonucleotide caacaacccaca” value (caacaacccaca) was 49.7 °C and the “ΔTm between singly mismatched and perfect duplexes (HNFas128A-2)” value (caacaacccaca) was −15.8 °C.
For 5′-Fitc-tDDDt^2S U^2SU^2SUa-EQL, the “Tm ^a of self complementary duplexes” value [1] was 64.5 °C.
In the case of 5′-Fitc-tAAATTTTA-EQL, the “Tm ^a of self complementary duplexes” value [1] is reported as >90 (94-96) ° C and the “Tm ^a of self complementary duplexes” value ([1]; listed as Table 7 entry 1) is reported as 90 °C.
